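Briefly, cells in 96-well plates were exposed to five compound concentrations for 48 h, and endpoints were estimated by linear interpolation. GI50 = concentration required for 50% inhibition of growth.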 The source made the active and inactive calls. Cut-off read from the data, not from the text of the source: active = GI50 up to about 1.1 µM and inactive = higher.
Experiments:
Test in all cases: NCI anticancer screen, dose series, 48 h
[1] = system: LOX IMVI
[2] = system: HCT-116
[3] = system: DLD-1
[4] = system: SK-MEL-2
[5] = system: SNB-75
[6] = system: NCI-H522
[7] = system: HT-29
[8] = system: OVCAR-5
[9] = system: SK-MEL-28
[10] = system: M14
[11] = system: NCI-H226
[12] = system: NCI/ADR-RES
[13] = system: NCI-H23
[14] = system: HCT-15
[15] = system: T47D
[16] = system: HOP-92
[17] = system: IGROV-1
[18] = system: SF-539
[19] = system: RPMI-8226
[20] = system: M19-MEL

SMILES | GI50 [1] | GI50 [2] | GI50 [3] | GI50 [4] | GI50 [5] | GI50 [6] | GI50 [7] | GI50 [8] | GI50 [9] | GI50 [10] | GI50 [11] | GI50 [12] | GI50 [13] | GI50 [14] | GI50 [15] | GI50 [16] | GI50 [17] | GI50 [18] | GI50 [19] | GI50 [20]
CCC(C)C(=O)O[C@H]1C(=O)O[C@@H]2C[C@H]3C(C)=CC(=O)[C@@H](O)[C@]3(C)[C@H]3[C@@H](O)[C@H](O)[C@@]4(C)OC[C@]32[C@@H]14 (stereo partly drawn) | < 0.0129 µM (active) | < 0.01 µM (active) | 0.0293 µM (active) | < 0.0252 µM (active) | < 0.0167 µM (active) | 0.0147 µM (active) | < 0.0146 µM (active) | < 0.0244 µM (active) | < 0.01 µM (active) | < 0.0144 µM (active) | < 0.0157 µM (active) | < 0.0334 µM (active) | < 0.01 µM (active) | < 0.0204 µM | < 0.01 µM (active) | < 0.0237 µM (active) | < 0.0191 µM (active) | < 0.0176 µM (active) | < 0.016 µM (active) | 0.0269 µM (active)
Clc1ccccc1C1SCc2nc3ccccc3n21 (stereo not drawn) | 26.4 µM (inactive) | 18.7 µM (inactive) | 33.2 µM (inactive) | 22 µM (inactive) | 3.97 µM (inactive) | 9.55 µM (inactive) | 29.4 µM (inactive) | 17.6 µM (inactive) | 28.5 µM (inactive) | 19.1 µM (inactive) | 26.2 µM (inactive) |  | 25.4 µM (inactive) | 22.6 µM |  | 8.79 µM (inactive) | 33.6 µM (inactive) | 33.5 µM (inactive) | 20 µM (inactive) | 33 µM (inactive)
CC(C)=CC(=O)C1c2cccc(O)c2C(=O)c2c(O)cc(C)cc21 (stereo not drawn) | 1.86 µM (inactive) | 2.14 µM (inactive) | 2.87 µM (inactive) | 1.98 µM (inactive) | 2.12 µM (inactive) | 2 µM (inactive) | 6.97 µM (inactive) | 2.34 µM (inactive) | 3.05 µM (inactive) | 3.25 µM (inactive) | 2.24 µM (inactive) |  | 2.44 µM (inactive) | 3.24 µM |  | 2.75 µM (inactive) | 2.09 µM (inactive) | 1.56 µM (inactive) | 3.61 µM (inactive) | 1.81 µM (inactive)
COc1cc([C@@H]2c3cc4c(cc3[C@@H](NC(=O)c3ccc(N)cc3)C3COC(=O)[C@@H]32)OCO4)cc(OC)c1O (stereo partly drawn) | 1.45 µM (inactive) | 2.47 µM (inactive) | 3.47 µM (inactive) | 7.74 µM (inactive) | 1.29 µM (inactive) | 1.75 µM (inactive) | 2.41 µM (inactive) | 4.49 µM (inactive) | 5.15 µM (inactive) | 2.72 µM (inactive) | 0.881 µM (active) |  | 1.3 µM (inactive) | 12.6 µM |  | 4.85 µM (inactive) | 1.42 µM (inactive) | 1.02 µM (active) | 1.61 µM (inactive) | 12.5 µM (inactive)
O=C(NC(=O)c1ccccc1[N+](=O)[O-])Nc1ccc(Oc2ncc(Cl)cn2)c(C(F)(F)F)c1 | 0.0262 µM (active) | 0.0124 µM (active) | < 0.0132 µM (active) | < 0.01 µM (active) | < 0.01 µM (active) | < 0.01 µM (active) | 0.0105 µM (active) | 0.0119 µM (active) | < 0.0104 µM (active) | < 0.0115 µM (active) | 0.0191 µM (active) | < 0.01 µM (active) | 0.0257 µM (active) | < 0.0126 µM | 22.1 µM (inactive) | < 0.01 µM (active) | 0.0213 µM (active) | 0.0109 µM (active) | 0.0208 µM (active) | < 0.0171 µM (active)
Cc1cc(C(=C2C=CC(=N)C=C2)c2ccc(N)cc2)ccc1N [FUCHSIN, BASIC] | 2.25 µM (inactive) | 3.36 µM (inactive) | 3.45 µM (inactive) | 3.18 µM (inactive) |  | 2.84 µM (inactive) | 3.66 µM (inactive) | 11.4 µM (inactive) | 8.2 µM (inactive) | 4.23 µM (inactive) | 3.19 µM (inactive) | 11.7 µM (inactive) | 2.98 µM (inactive) | 12 µM | 1.01 µM (active) | 6.81 µM (inactive) | 10.7 µM (inactive) | 0.706 µM (active) | 2.42 µM (inactive) | 4.21 µM (inactive)
